From US11801252B2, “Pharmaceutical composition” (Jiangsu Hengrui Medicine Co., Ltd., priority 2021, dated 2023)
Several values for one entry are separate records, joined by “and”; a condition that tells them apart may be missing. Equal entries are not always repeated. Where two headings read alike, the source gives them in different places.

Legend:
[1] = stated without source; cited from earlier work
[2] = In vivo pharmacokinetics study in healthy subjects, 75-450 mg single dose, fasting (Test Example 2); parameters: species or system human (healthy male subjects); details: for CLz/F of SNAC / t1/2z of SNAC / λz of SNAC / AUC—% Extrap of SNAC / MRT last / MRT inf / AUC(0-inf) / Cmax / AUC(0-t) / Vd/F / Tmax: single oral, fasting, healthy male subjects; for CLz/F of SNAC / t1/2z of SNAC / λz of SNAC / AUC—% Extrap of SNAC / MRT last / MRT inf / AUC(0-inf) / Cmax / AUC(0-t) / Vd/F: Mean ± SD; for MRT last / MRT inf / AUC(0-inf) / Cmax / AUC(0-t) / Vd/F / Tmax: human; for MRT last: read-out: MRT0-t of SNAC; for MRT inf: read-out: MRT0-∞ of SNAC; for AUC(0-inf): read-out: AUC0-∞ of SNAC; for AUC(0-t): read-out: AUC0-t of SNAC; for Vd/F: read-out: Vz/F of SNAC; for Tmax: median
Experimental: To study the pharmacokinetic characteristics of 75 mg, 150 mg, 300 mg and 450 mg doses of abiraterone acetate tablets in healthy subjects after a single oral administration under fasting state.
A single-center, open-label, sequential trial design was applied. A total of 16 healthy male subjects were planned to be enrolled in the study, who entered the four dose groups sequentially and the washout period of each dose group was seven days. Blood samples were collected at a series of time points, and safety test was performed. The blood concentration of abiraterone at different time points after dosing was determined by HPLC-MS/MS. Pharmacokinetic parameters were calculated using non-compartmental model and statistically analyzed.
The subjects were admitted to the ward before dinner on the day before the administration of each studied dose. […] They were fasting for at least 10 hours before dosing. According to the trial protocol, subjects were given a single oral administration of the investigational drug, abiraterone acetate tablets, 75 mg (split 150 mg tablet along the score line into half a tablet), 150 mg (150 mg×1 tablet), 300 mg (150 mg×2 tablets) and 450 mg (150 mg×3 tablets) with 240 mL water under fasting state in the morning on the day of trial of each dose group. Liquid was prohibited before administration and within 1 h after administration, and standard lunch and dinner (a standardized light diet) were taken about 4 and 10 h after administration.
Test Formulation (T): Abiraterone acetate tablets (Formulation 5), specification: 150 mg.
PKPS (PKPS, all enrolled in the group and receiving the study drug, at least one subject with analyzable PK parameters during the trial) was used for the statistical analysis of pharmacokinetic parameters.
The linearity between AUC and Cmax and the administration dose was analyzed by confidence interval method, and linear regression analysis was performed on the AUC and Cmax after natural logarithmic transformation respectively and the administration dose, to observe the slope of the linear regression equation and 90% confidence interval.

[3] = as above; parameters: species or system human (healthy male subjects); details: single oral, healthy male subjects
[4] = Pharmacokinetics study in male cynomolgus monkeys (Test Example 1); assay type: in vivo; details: cynomolgus monkey, plasma, po, 300 mg/animal, after Formulation 2 (2 tablets, 300 mg/animal) PO, mean ± SD; for AUC(0-inf): n = 8, read-out: AUC(0-∞) of SNAC in plasma; for Cmax: n = 8, read-out: Cmax of SNAC in plasma; for half-life: n = 8, read-out: T1/2 of SNAC in plasma (converted); for Tmax: n = 8, read-out: Tmax of SNAC in plasma; for AUC(0-t): t = 24 h, n = 8, read-out: AUC(0-t) of SNAC in plasma
Experimental: Eight male cynomolgus monkeys were administered by single oral gavage, including 4 cycles, 5 days per cycle, 20 days in total (see Table 4 for the protocol).
The animals in cycle I and II were fasted before administration, while the animals in cycle III and IV were given high-fat food before administration. Animals in cycle I and III were given 300 mg of Formulation 2 (2 tablets of abiraterone acetate, T, comprising 300 mg of abiraterone), while animals in cycle II and IV were given 1000 mg of reference preparation (4 tablets of abiraterone acetate Zytiga®, R). Blood samples were collected before administration or at 0.25, 0.5, 1, 1.5, 2, 2.5, 3, 4, 8, 12 and 24 hours after administration. The validated LC-MS/MS method was used to determine the concentrations of abiraterone and SNAC in plasma samples. Only abiraterone was detected for those given reference preparation, while abiraterone and SNAC were both detected for those given test formulations. The main pharmacokinetic parameters were calculated according to the concentrations of abiraterone and SNAC in plasma using Phoenix WinNonlin® 7.0 software. The main pharmacokinetic data of abiraterone in plasma in cycles I-IV are shown in Table 5, and the main pharmacokinetic data of SNAC in plasma in cycles I and III are shown in Table 6.

[5] = after Formulation 5, dose group A 75 mg (equal SNAC content), N = 16
[6] = after Formulation 5, dose group B 150 mg (equal SNAC content), N = 15
[7] = after Formulation 5, dose group C 300 mg (equal SNAC content), N = 15
[8] = after Formulation 5, dose group D 450 mg (equal SNAC content), N = 15
[9] = dose range 75-450 mg of test formulation, confidence interval method, N = 16
[10] = blood, after Formulation 5, dose group A 75 mg (equal SNAC content), N = 16
[11] = blood, after Formulation 5, dose group B 150 mg (equal SNAC content), N = 15
[12] = blood, after Formulation 5, dose group C 300 mg (equal SNAC content), N = 15
[13] = blood, after Formulation 5, dose group D 450 mg (equal SNAC content), N = 15
[14] = plasma, after Formulation 5, dose group A 75 mg (equal SNAC content), N = 16
[15] = plasma, after Formulation 5, dose group B 150 mg (equal SNAC content), N = 15
[16] = plasma, after Formulation 5, dose group C 300 mg (equal SNAC content), N = 15
[17] = plasma, after Formulation 5, dose group D 450 mg (equal SNAC content), N = 15

Structure (SMILES): O=C([O-])CCCCCCCNC(=O)c1ccccc1O.[Na+] [SNAC, sodium 8-(salicylamido)caprylate]
- PKA [1]: 5.0
- CLz/F of SNAC [2, 5]: 2.66 ×10^2 L · h^−1 and 2.66 ± 0.64 ×10^2 L · h^−1
- t1/2z of SNAC [2, 5]: 3.53 h and 3.53 ± 2.54 h
- λz of SNAC [2, 5]: 0.28 ± 0.14 h⁻¹
- AUC—% Extrap of SNAC [2, 6]: 0.63 ± 0.62%
- CLz/F of SNAC [2, 6]: 2.36 ×10^2 L · h^−1 and 2.36 ± 0.62 ×10^2 L · h^−1
- t1/2z of SNAC [2, 6]: 2.94 h and 2.94 ± 1.39 h
- λz of SNAC [2, 6]: 0.29 ± 0.14 h⁻¹
- AUC—% Extrap of SNAC [2, 7]: 0.95 ± 0.91%
- CLz/F of SNAC [2, 7]: 2.22 ×10^2 L · h^−1 and 2.22 ± 0.51 ×10^2 L · h^−1
- t1/2z of SNAC [2, 7]: 5.35 h and 5.35 ± 3.92 h
- λz of SNAC [2, 7]: 0.19 ± 0.11 h⁻¹
- AUC—% Extrap of SNAC [2, 8]: 0.50 ± 0.44%
- CLz/F of SNAC [2, 8]: 2.22 ×10^2 L · h^−1 and 2.22 ± 0.51 ×10^2 L · h^−1
- t1/2z of SNAC [2, 8]: 4.88 h and 4.88 ± 2.37 h
- λz of SNAC [2, 8]: 0.18 ± 0.09 h⁻¹
- Slope of the linear regression equation (β), LnAUC0-t of SNAC vs dose [2, 9]: 1.10
- Slope of the linear regression equation (β), LnAUC0-∞ of SNAC vs dose [2, 9]: 1.10
- Slope of the linear regression equation (β), LnCmax of SNAC vs dose [2, 9]: 1.00
- MRT last [2, 10]: 1.32 ± 0.52 h
- MRT inf [2, 10]: 1.58 ± 0.76 h
- MRT last [2, 11]: 1.21 ± 0.48 h
- MRT inf [2, 11]: 1.32 ± 0.5 h
- MRT last [2, 12]: 1.28 ± 0.36 h
- MRT inf [2, 12]: 1.55 ± 0.54 h
- AUC(0-inf) [2, 13]: 2130 ± 491 ng·h/mL
- MRT last [2, 13]: 1.4 ± 0.53 h
- MRT inf [2, 13]: 1.53 ± 0.51 h
- Cmax [2, 14]: 407 ng/mL
- AUC(0-t) [2, 14]: 291 ng·h/mL
- AUC(0-inf) [2, 14]: 295 ± 61.4 ng·h/mL
- Vd/F [2, 14]: 1280 L
- Cmax [2, 15]: 977 ng/mL
- AUC(0-t) [2, 15]: 668 ng·h/mL
- AUC(0-inf) [2, 15]: 672 ± 152 ng·h/mL
- Vd/F [2, 15]: 1010 L
- Tmax [2, 15]: 0.5 h
- Cmax [2, 16]: 1870 ng/mL
- AUC(0-inf) [2, 16]: 1410 ± 285 ng·h/mL
- Vd/F [2, 16]: 1740 L
- Tmax [2, 16]: 0.5 h
- Cmax [2, 17]: 2460 ng/mL
- AUC(0-t) [2, 17]: 2120 ng·h/mL
- Vd/F [2, 17]: 1520 L
- Tmax [2, 17]: 0.5 h
- AUC—% Extrap of SNAC ([3]; after Formulation 5, dose group A 75 mg (equal SNAC content), N = 16, Mean ± SD): 1.23 ± 1.12%
- Tmax ([3]; human, plasma, after Formulation 5, dose group A 75 mg (equal SNAC content), N = 16, median): 0.38 h
- AUC(0-t) ([3]; human, plasma, after Formulation 5, dose group C 300 mg (equal SNAC content), N = 15, Mean ± SD, read-out: AUC0-t of SNAC): 1400 ng·h/mL
- AUC(0-inf) ([4]; fasting): 40900 ± 10600 ng·h/mL
- Cmax ([4]; fasting): 34200 ± 18000 ng/mL
- half-life ([4]; fasting): 3.16 ± 0.93 h
- Tmax ([4]; fasting): 0.72 ± 0.49 h
- AUC(0-inf) ([4]; high fat diet): 18700 ± 5620 ng·h/mL
- Cmax ([4]; high fat diet): 4660 ± 2400 ng/mL
- half-life ([4]; high fat diet): 2.71 ± 0.74 h
- Tmax ([4]; high fat diet): 2.88 ± 0.74 h
- AUC(0-t) ([4]; fasting): 40300 ± 10400 ng·h/mL
- AUC(0-t) ([4]; high fat diet): 18400 ± 5740 ng·h/mL
